This assay concerns the target T1, Histidinol dehydrogenase (Brucella suis biovar 1 (strain 1330), UniProt Q8G2R2).
T1 sequence (Q8G2R2 whole entry): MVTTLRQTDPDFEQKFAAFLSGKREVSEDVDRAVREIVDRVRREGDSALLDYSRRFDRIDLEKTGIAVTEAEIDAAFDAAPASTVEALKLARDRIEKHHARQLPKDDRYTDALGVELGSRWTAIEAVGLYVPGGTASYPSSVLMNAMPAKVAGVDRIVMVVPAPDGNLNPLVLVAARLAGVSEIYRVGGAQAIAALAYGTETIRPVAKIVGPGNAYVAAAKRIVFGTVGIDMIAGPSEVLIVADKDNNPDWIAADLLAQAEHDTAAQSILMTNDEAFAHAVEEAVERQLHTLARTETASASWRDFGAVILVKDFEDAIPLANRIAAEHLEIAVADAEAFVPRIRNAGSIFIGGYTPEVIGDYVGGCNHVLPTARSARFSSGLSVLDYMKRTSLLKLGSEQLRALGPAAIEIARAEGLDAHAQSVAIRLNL
The assay is described as follows: Inhibition of Brucella suis 1330 His6-tagged HDH expressed in Escherichia coli BL21 (DE3) using L-histidinol as substrate assessed as NADH formation preincubated for 5 mins followed by substrate addition.

This note sets out measurements from ChEMBL document CHEMBL3217505, “Synthesis and biological evaluation of a new class of anti-brucella compounds targeting histidinol dehydrogenase: -O-arylketones and -S-arylketones derived from histidine” (Medchemcomm, 2011).

Usually IC50 stands for the concentration at which inhibition is half-maximal.

Consider `N[C@@H](Cc1c[nH]cn1)C(=O)CS`, for which the IC50 is 2100 nM.
For the compound `N[C@@H](Cc1c[nH]cn1)C(=O)CSc1ccccc1`, the IC50 was 7100 nM.
As for `Cc1ccc(SCC(=O)[C@@H](N)Cc2c[nH]cn2)cc1`, the figure is 39500 nM.
As for `N[C@@H](Cc1c[nH]cn1)C(=O)CSc1ccc(F)cc1`, the figure is 3100 nM; as for `N[C@@H](Cc1c[nH]cn1)C(=O)CSc1ccc2ccccc2c1`, 3300 nM.
As for `N[C@@H](Cc1c[nH]cn1)C(=O)CSc1ccc(Br)cc1`, the figure is 2800 nM.
In the case of `N[C@@H](Cc1c[nH]cn1)C(=O)CSc1c(F)c(F)c(F)c(F)c1F`, the IC50 is 19200 nM.
In the case of `N[C@@H](Cc1c[nH]cn1)C(=O)CO` it was 24.3 nM; in that of `N[C@@H](Cc1c[nH]cn1)C(=O)COc1ccccc1`, 3650 nM.
As for `Cc1ccc(OCC(=O)[C@@H](N)Cc2c[nH]cn2)cc1`, the figure is 208 nM; as for `N[C@@H](Cc1c[nH]cn1)C(=O)COc1ccc(F)cc1`, 4700 nM.
As for `N[C@@H](Cc1c[nH]cn1)C(=O)COc1ccc2ccccc2c1`, the figure is 108 nM.
Consider `N[C@@H](Cc1c[nH]cn1)C(=O)COc1ccc(Br)cc1`, for which the IC50 was found to be 1600 nM.
Turning to `N[C@@H](Cc1c[nH]cn1)C(=O)COc1c(F)c(F)c(F)c(F)c1F`, the IC50 came to 2780 nM.
